In PubChem BioAssay (NCI):
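Where inhibition never reached the appropriate level, the endpoint shown equals the highest concentration tested. Otherwise, values were interpolated linearly from a five-concentration, 48-hour dose response in 96-well plates. At the GI50, growth is halved. TGI: concentration producing complete growth inhibition.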

What was measured:
Test in all cases: NCI-60 cell line screen, 48 h
[1] = tested on: RXF 393 renal
[2] = tested on: NCI/ADR-RES ovarian
[3] = tested on: HS 578T breast
[4] = tested on: MALME-3M melanoma
[5] = tested on: HOP-92 NSCLC
[6] = tested on: MOLT-4 leukemia
[7] = tested on: SK-MEL-5 melanoma
[8] = tested on: M14 melanoma
[9] = tested on: CAKI-1 renal
[10] = tested on: K-562 leukemia
[11] = tested on: SK-MEL-2 melanoma
[12] = tested on: T-47D breast
[13] = tested on: HOP-62 NSCLC
[14] = tested on: NCI-H23 lung
[15] = tested on: CCRF-CEM leukemia
[16] = tested on: ACHN renal
[17] = tested on: MDA-MB-231 breast
[18] = tested on: HCT-15 colon
[19] = tested on: NCI-H226 lung
[20] = tested on: A498 renal
[21] = tested on: SNB-19 CNS
[22] = tested on: OVCAR-8 ovarian
[23] = tested on: OVCAR-5 ovarian
[24] = tested on: SF-539 CNS
[25] = tested on: MDA-N
[26] = tested on: NCI-H460 lung
[27] = tested on: MCF7 breast
[28] = tested on: SNB-75 CNS
[29] = tested on: PC-3 prostate
[30] = tested on: DU-145 prostate
[31] = tested on: LOX IMVI melanoma
[32] = tested on: SW-620 colon
[33] = tested on: EKVX NSCLC
[34] = tested on: OVCAR-4 ovarian
[35] = tested on: HL-60(TB) leukemia
[36] = tested on: SF-268 CNS
[37] = tested on: A549 NSCLC
[38] = tested on: OVCAR-3 ovarian
[39] = tested on: SN12C renal
[40] = tested on: SK-MEL-28 melanoma
[41] = tested on: RPMI-8226 leukemia
[42] = tested on: 786-0 renal
[43] = tested on: SK-OV-3 ovarian
[44] = tested on: SR leukemia
[45] = tested on: UACC-62 melanoma
[46] = tested on: HCC-2998 colon
[47] = tested on: HCT-116 colon
[48] = tested on: SF-295 CNS
[49] = tested on: UO-31 renal
[50] = tested on: U251 CNS
[51] = tested on: UACC-257 melanoma
[52] = tested on: COLO 205 colon
[53] = tested on: HT29 colon
[54] = tested on: TK-10 renal
[55] = tested on: NCI-H522 lung
[56] = tested on: MDA-MB-435
[57] = tested on: KM12 colon
[58] = tested on: IGROV1 ovarian
[59] = tested on: BT-549 breast

Q: What does the source list for `O=CN1CCN(C(=O)c2ccco2)C1=S`?
A: TGI [1]: 20.1 µM; TGI [2]: 75.3 µM; TGI [3]: > 100 µM; TGI [4]: 29.9 µM; TGI [5]: 18.7 µM; TGI [6]: 35 µM; TGI [7]: 29.1 µM; TGI [8]: 24.1 µM; TGI [9]: 18.5 µM; TGI [10]: 29.5 µM; TGI [11]: 40.6 µM; TGI [12]: 19.3 µM; TGI [13]: 36.2 µM; TGI [14]: 40.4 µM; TGI [15]: > 37.1 µM; TGI [16]: 24 µM; TGI [17]: 33.9 µM; TGI [18]: 25.7 µM; TGI [19]: 54.8 µM; TGI [20]: 39.7 µM; TGI [21]: > 70.6 µM; TGI [22]: 59 µM; TGI [23]: 37.7 µM; TGI [24]: 22.8 µM; TGI [25]: 24.7 µM; TGI [26]: 42.1 µM; TGI [27]: 10.6 µM; TGI [28]: 34.8 µM; TGI [29]: 23 µM; TGI [30]: 11.6 µM; TGI [31]: 14.8 µM; TGI [32]: > 46.5 µM; TGI [33]: 41.3 µM; TGI [34]: 46.6 µM; TGI [35]: 8.94 µM; TGI [36]: 28.8 µM; TGI [37]: 26.9 µM; TGI [38]: 15.4 µM; TGI [39]: 15.8 µM; TGI [40]: > 57.6 µM; TGI [41]: 8.96 µM; TGI [42]: 12.6 µM; TGI [43]: 70.8 µM; TGI [44]: 9.25 µM; TGI [45]: 20.7 µM; GI50 [46]: 13.4 µM; TGI [46]: 27.2 µM; TGI [47]: 24.5 µM; TGI [48]: 51.1 µM; TGI [49]: 13.8 µM; TGI [50]: 32.5 µM; TGI [51]: 33 µM; TGI [52]: 24.4 µM; TGI [53]: 26.2 µM; TGI [54]: 31 µM; TGI [55]: 17.4 µM; TGI [56]: 19.7 µM; TGI [57]: 20.1 µM; TGI [58]: 25.3 µM; TGI [59]: 16.8 µM

Q: For `CC(=O)C1(O)CCC2(O)C3(O)CC=C4CC(O)CCC4(C)C3CC(OC(=O)c3ccc(O)cc3)C12C` (configuration not stated), which TGI [2] is on record?
A: > 100 µM

Q: What about the TGI [3] of the same compound?
A: > 100 µM

Q: And the TGI [5]?
A: > 100 µM

Q: What about the TGI [6] of the same compound?
A: > 100 µM

Q: And the TGI [7]?
A: > 100 µM

Q: And the TGI [8]?
A: > 100 µM

Q: What about the TGI [9] of the same compound?
A: > 100 µM

Q: What about the TGI [10] of the same compound?
A: > 100 µM

Q: What about the TGI [11] of the same compound?
A: > 100 µM

Q: What about the TGI [12] of the same compound?
A: > 100 µM

Q: And the TGI [13]?
A: > 100 µM

Q: And the TGI [14]?
A: > 100 µM

Q: What about the TGI [15] of the same compound?
A: > 100 µM

Q: What about the TGI [16] of the same compound?
A: > 100 µM

Q: What about the TGI [17] of the same compound?
A: > 100 µM

Q: What about the TGI [18] of the same compound?
A: > 100 µM

Q: What about the TGI [19] of the same compound?
A: > 100 µM

Q: And the TGI [20]?
A: > 100 µM

Q: And the TGI [21]?
A: > 100 µM

Q: What about the TGI [22] of the same compound?
A: > 100 µM

Q: And the TGI [23]?
A: > 100 µM

Q: What about the TGI [24] of the same compound?
A: > 100 µM

Q: What about the TGI [25] of the same compound?
A: > 100 µM

Q: What about the TGI [26] of the same compound?
A: > 100 µM

Q: And the TGI [27]?
A: > 100 µM

Q: And the TGI [28]?
A: > 100 µM

Q: What about the TGI [29] of the same compound?
A: > 100 µM

Q: And the TGI [30]?
A: > 100 µM

Q: What about the TGI [31] of the same compound?
A: > 100 µM

Q: What about the TGI [32] of the same compound?
A: > 100 µM

Q: What about the TGI [33] of the same compound?
A: > 100 µM

Q: And the TGI [34]?
A: > 100 µM

Q: And the TGI [35]?
A: > 100 µM

Q: What about the TGI [36] of the same compound?
A: > 100 µM

Q: And the TGI [37]?
A: > 100 µM

Q: And the TGI [38]?
A: > 100 µM

Q: And the TGI [39]?
A: > 100 µM

Q: And the TGI [40]?
A: > 100 µM

Q: What about the TGI [41] of the same compound?
A: > 100 µM

Q: And the TGI [42]?
A: > 100 µM

Q: And the TGI [43]?
A: > 100 µM

Q: What about the TGI [44] of the same compound?
A: > 100 µM

Q: And the TGI [45]?
A: > 100 µM

Q: And the TGI [46]?
A: > 100 µM

Q: And the TGI [47]?
A: > 100 µM

Q: What about the TGI [48] of the same compound?
A: > 100 µM

Q: What about the TGI [49] of the same compound?
A: > 100 µM

Q: And the TGI [50]?
A: > 100 µM

Q: What about the TGI [51] of the same compound?
A: > 100 µM

Q: What about the TGI [52] of the same compound?
A: > 100 µM

Q: And the TGI [53]?
A: > 100 µM

Q: What about the TGI [54] of the same compound?
A: > 100 µM

Q: What about the TGI [55] of the same compound?
A: > 100 µM

Q: And the TGI [56]?
A: > 100 µM

Q: What about the TGI [57] of the same compound?
A: > 100 µM

Q: And the TGI [58]?
A: > 100 µM

Q: And the TGI [59]?
A: > 100 µM
